ChEMBL document CHEMBL4145540 (Eur J Med Chem, 2018)
pIC50: −log10 of the molar value. Calls of active or inactive are those of the source. No cut-off for these calls is given here.

How the values were obtained:
[1] = tested on: HT-29; assay: Antiproliferative activity against human HT-29 cells after 2 days by MTT assay; assay type: functional, cell-based; conditions: HT-29, 48 h
[2] = tested on: MCF7; assay: Antiproliferative activity against human MCF7 cells after 2 days by MTT assay; assay type: functional, cell-based; conditions: MCF7, 48 h
[3] = tested on: HeLa; assay: Antiproliferative activity against human HeLa cells after 2 days by MTT assay; assay type: functional, cell-based; conditions: 48 h
[4] = tested on: A549; assay: Antiproliferative activity against human A549 cells after 2 days by MTT assay; assay type: functional, cell-based; conditions: A549, 48 h
[5] = tested on: HL-60; assay: Antiproliferative activity against human HL60 cells after 2 days by MTT assay; assay type: functional, cell-based; conditions: HL-60, 48 h
[6] = tested on: HMEC-1; assay: Antiproliferative activity against HMEC1 cells after 2 days by MTT assay; assay type: functional, cell-based; conditions: Homo sapiens, HMEC-1, 48 h
[7] = tested on: HEK293; assay: Antiproliferative activity against HEK293 cells after 2 days by MTT assay; assay type: cell-based; conditions: Homo sapiens, HEK293, 48 h
[8] = tested on: MDA-MB-231; assay: Antiproliferative activity against human MDA-MB-231 cells after 3 days by coulter counting method; assay type: functional, cell-based; conditions: MDA-MB-231, 72 h
[9] = species: Bos taurus; assay: Inhibition of calf brain tubulin polymerization after 60 mins by turbidimetric method
[10] = tested on: A549; assay: Disruption of microtubule network in human A549 cells assessed as appearance of tubulin aggregates at 300 nM after 16 hrs by Hoechst staining based immunofluorescence assay; assay type: cell-based
[11] = tested on: A549; assay: Disruption of microtubule network in human A549 cells assessed as appearance of compressed and fragmented nuclei at 300 nM after 16 hrs by Hoechst staining based immunofluorescence assay; assay type: cell-based
[12] = tested on: A549; assay: Cell cycle arrest in human A549 cells assessed as accumulation at sub-G0 phase at 75 nM after 20 hrs by propidium iodide staining based flow cytometry (reference value: 6.6 +/- 0.1%); assay type: functional
[13] = tested on: A549; assay: Cell cycle arrest in human A549 cells assessed as accumulation at G0/G1 phase at 75 nM after 20 hrs by propidium iodide staining based flow cytometry (reference value: 66 +/- 1%); assay type: functional
[14] = tested on: A549; assay: Cell cycle arrest in human A549 cells assessed as accumulation at S phase at 75 nM after 20 hrs by propidium iodide staining based flow cytometry (reference value: 16 +/- 1%); assay type: functional
[15] = tested on: A549; assay: Cell cycle arrest in human A549 cells assessed as accumulation at G2/M phase at 75 nM after 20 hrs by propidium iodide staining based flow cytometry (reference value: 11 +/- 1%); assay type: functional
[16] = tested on: A549; assay: Induction of apoptosis in human A549 cells at 100 nM after 24 hrs by Annexin V-FITC/propidium iodide staining based flow cytometry (reference value: 28%); assay type: functional
[17] = tested on: A549; assay: Induction of apoptosis in human A549 cells at 10 nM after 24 hrs by Annexin V-FITC/propidium iodide staining based flow cytometry (reference value: 28%); assay type: functional
[18] = tested on: A549; assay: Induction of apoptosis in human A549 cells after 24 hrs by Annexin V-FITC/propidium iodide staining based flow cytometry; assay type: functional, cell-based
[19] = Selectivity index, ratio of IC50 for antiproliferative activity against HEK293 cells to IC50 for antiproliferative activity against human MCF7 cells; assay type: toxicity, cell-based; conditions: HEK293 cells versus MCF7 cells, read-out: Ratio IC50
[20] = Selectivity index, ratio of IC50 for antiproliferative activity against HEK293 cells to IC50 for antiproliferative activity against human HT-29 cells; assay type: toxicity, cell-based; conditions: HEK293 cells versus HT-29 cells, read-out: Ratio IC50
[21] = Selectivity index, ratio of IC50 for antiproliferative activity against HEK293 cells to IC50 for antiproliferative activity against human HeLa cells; assay type: toxicity, cell-based; conditions: HEK293 cells versus HeLa cells, read-out: Ratio IC50
[22] = Selectivity index, ratio of IC50 for antiproliferative activity against HEK293 cells to IC50 for antiproliferative activity against human HL60 cells; assay type: toxicity, cell-based; conditions: HEK293 cells versus HL60 cells, read-out: Ratio IC50
[23] = tested on: A549; assay: Cell cycle arrest in human A549 cells assessed as accumulation at sub-G0 phase at 50 nM after 20 hrs by propidium iodide staining based flow cytometry (reference value: 6.6 +/- 0.1%); assay type: functional
[24] = tested on: A549; assay: Disruption of microtubule network in human A549 cells assessed as appearance of tubulin aggregates at 200 nM after 16 hrs by Hoechst staining based immunofluorescence assay; assay type: cell-based
[25] = tested on: A549; assay: Disruption of microtubule network in human A549 cells assessed as appearance of compressed and fragmented nuclei at 200 nM after 16 hrs by Hoechst staining based immunofluorescence assay; assay type: cell-based
[26] = tested on: A549; assay: Cell cycle arrest in human A549 cells assessed as accumulation at G0/G1 phase at 50 nM after 20 hrs by propidium iodide staining based flow cytometry (reference value: 66 +/- 1%); assay type: functional
[27] = tested on: A549; assay: Cell cycle arrest in human A549 cells assessed as accumulation at S phase at 50 nM after 20 hrs by propidium iodide staining based flow cytometry (reference value: 16 +/- 1%); assay type: functional
[28] = tested on: A549; assay: Cell cycle arrest in human A549 cells assessed as accumulation at G2/M phase at 50 nM after 20 hrs by propidium iodide staining based flow cytometry (reference value: 11 +/- 1%); assay type: functional
[29] = tested on: A549; assay: Cell cycle arrest in human A549 cells assessed as accumulation at sub-G0 phase at 400 nM after 20 hrs by propidium iodide staining based flow cytometry (reference value: 6.6 +/- 0.1%); assay type: functional
[30] = tested on: A549; assay: Cell cycle arrest in human A549 cells assessed as accumulation at G0/G1 phase at 400 nM after 20 hrs by propidium iodide staining based flow cytometry (reference value: 66 +/- 1%); assay type: functional
[31] = tested on: A549; assay: Cell cycle arrest in human A549 cells assessed as accumulation at S phase at 400 nM after 20 hrs by propidium iodide staining based flow cytometry (reference value: 16 +/- 1%); assay type: functional
[32] = tested on: A549; assay: Cell cycle arrest in human A549 cells assessed as accumulation at G2/M phase at 400 nM after 20 hrs by propidium iodide staining based flow cytometry (reference value: 11 +/- 1%); assay type: functional

| Structure (SMILES) | pIC50 [1] | pIC50 [2] | pIC50 [3] | pIC50 [4] | pIC50 [5] | pIC50 [6] | pIC50 [7] | pIC50 [8] | inhibition [9] | Activity [16] | Activity [17] | Activity [18] | also measured |
| --- | --- | --- | --- | --- | --- | --- | --- | --- | --- | --- | --- | --- | --- |
| COc1ccc(/C=C\c2cc(OC)c(OC)c(OC)c2)cc1NC(=O)Oc1cccc(F)c1 | 7.97 | 8.15 | 8.57 | 6.82 | 7.22 | 7.70 | 7.88 | 7.83 | Active | 67% | 26% | Dose-dependent effect | Activity [10]: Active; Activity [11]: Active; Activity [12]: 19%; Activity [13]: 29%; Activity [14]: 10%; Activity [15]: 43% |
| COc1ccc(/C=C\c2cc(OC)c(OC)c(OC)c2)cc1NC(=O)Oc1cccc(Cl)c1 | 8.04 | 8.36 | 8.32 | 7.00 | 7.87 | 8.05 | 7.84 | 7.82 | Active | 93% | 29% | Dose-dependent effect | selectivity ratio [19]: 2 to 11; selectivity ratio [20]: 2 to 11; selectivity ratio [21]: 2 to 11; selectivity ratio [22]: 2 to 11; Activity [23]: 16%; Activity [24]: Active; Activity [25]: Active; Activity [26]: 30%; Activity [27]: 10%; Activity [28]: 44% |
| COc1ccc(/C=C\c2cc(OC)c(OC)c(OC)c2)cc1NC(=O)Oc1ccc(Cl)cc1 | 7.51 | 7.09 | 7.62 | 6.10 | 6.11 | 7.12 | 6.85 | 8.03 |  |  |  |  | Activity [29]: 20%; Activity [30]: 21%; Activity [31]: 18%; Activity [32]: 41% |
